According to patent US9725448B2, “Neprilysin inhibitors” (THERAVANCE BIOPHARMA R&D IP, LLC, priority 2011, dated 2017):

Molecular target: T1, human NEP (Homo sapiens, UniProt P08473)
T1 construct: purchased R&D Systems, Minneapolis, Minn; 1182-ZN
Experiment: In vitro enzyme inhibition assay at human NEP (fluorogenic peptide substrate)
Format: biochemical
Conditions: pKi values at human NEP (recombinant), given as ranges
Procedure: The inhibitory activities of compounds at human and rat neprilysin (EC 3.4.24.11; NEP) and human angiotensin converting enzyme (ACE) were determined using in vitro assays as described below.
Recombinant human NEP and recombinant human ACE were obtained commercially (R&D Systems, Minneapolis, Minn., catalog numbers 1182-ZN and 929-ZN, respectively). The fluorogenic peptide substrate Mca-D-Arg-Arg-Leu-Dap-(Dnp)-OH (Medeiros et al. (1997) Braz. J. Med. Biol. Res. 30:1157-62; Anaspec, San Jose, Calif.) and Abz-Phe-Arg-Lys(Dnp)-Pro-OH (Araujo et al. (2000) Biochemistry 39:8519-8525; Bachem, Torrance, Calif.) were used in the NEP and ACE assays respectively.
The assays were performed in 384-well white opaque plates at 37° C. using the fluorogenic peptide substrates at a concentration of 10 μM in Assay Buffer (NEP: 50 mM HEPES, pH 7.5, 100 mM NaCl, 0.01% polyethylene glycol sorbitan monolaurate (Tween-20), […]; ACE: 50 mM HEPES, pH 7.5, 100 mM NaCl, 0.01% Tween-20, 1 μM ZnSO4).
Test compounds were assayed over the range of concentrations from 10 μM to 20 pM. Test compounds were added to the enzymes and incubated for 30 minute at 37° C. prior to initiating the reaction by the addition of substrate. Reactions were terminated after 20 minutes of incubation at 37° C. by the addition of glacial acetic acid to a final concentration of 3.6% (v/v).
Plates were read on a fluorometer with excitation and emission wavelengths set to 320 nm and 405 nm, respectively. Inhibition constants were obtained by nonlinear regression of the data using the equation (GraphPad Software, Inc., San Diego, Calif.): ν=ν0/[1+(I/K′)] where ν is the reaction rate, ν0 is the uninhibited reaction rate, I is the inhibitor concentration and K′ is the apparent inhibition constant.
Compounds of the invention were tested in this assay and found to have pKi values at human NEP as follows.

T1 sequence (P08473 52-750 limits assumed): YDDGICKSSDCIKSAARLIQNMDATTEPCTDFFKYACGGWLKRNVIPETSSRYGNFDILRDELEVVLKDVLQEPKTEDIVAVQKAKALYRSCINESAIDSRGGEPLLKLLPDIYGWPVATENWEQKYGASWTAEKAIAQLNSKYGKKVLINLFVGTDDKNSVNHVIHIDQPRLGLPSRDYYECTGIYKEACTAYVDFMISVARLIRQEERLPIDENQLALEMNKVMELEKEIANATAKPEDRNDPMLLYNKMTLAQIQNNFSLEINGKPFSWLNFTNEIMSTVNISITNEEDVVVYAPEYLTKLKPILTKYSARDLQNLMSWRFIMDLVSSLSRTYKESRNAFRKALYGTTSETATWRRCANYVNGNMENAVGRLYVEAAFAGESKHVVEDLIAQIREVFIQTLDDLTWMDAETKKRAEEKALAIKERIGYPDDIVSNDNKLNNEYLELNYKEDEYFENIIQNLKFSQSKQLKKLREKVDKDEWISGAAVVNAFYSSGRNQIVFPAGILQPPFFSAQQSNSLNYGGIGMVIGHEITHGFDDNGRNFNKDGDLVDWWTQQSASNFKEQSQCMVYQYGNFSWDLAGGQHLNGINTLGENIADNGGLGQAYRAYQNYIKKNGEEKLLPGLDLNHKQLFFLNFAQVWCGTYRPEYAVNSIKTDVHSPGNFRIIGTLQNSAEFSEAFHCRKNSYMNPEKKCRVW

Structure (SMILES) | Ki
O=C(N[C@H](Cc1ccc(-c2ccccc2)cc1)CC1(C(=O)O)CC1)c1cnn[nH]1 [Example 11-1, 1-{(R)-3-Biphenyl-4-yl-2-[(3H-[1,2,3]triazole-4-carbonyl)-amino]-propyl}-cyclopropanecarboxylic acid] | 12.6 to 100 nM
C[C@@](O)(CN(Cc1ccc(-c2cccc(Cl)c2)cc1)NC(=O)c1cnn[nH]1)C(=O)O [Example 7-1, (R)-3-[N-(3′-Chlorobiphenyl-4-ylmethyl)-N′-(3H-[1,2,3]triazole-4-carbonyl)-hydrazino]-2-hydroxy-2-methyl-propionic acid] | 1.26 to 10 nM
CN(C)C(=O)c1cc(C(=O)NN(Cc2ccc(-c3ccccc3)cc2)CC(C)(O)C(=O)O)[nH]n1 (stereo not shown) [Example 4-7, 3-[N-Biphenyl-4-ylmethyl-N′-(5-dimethylcarbamoyl-2H-pyrazole-3-carbonyl)-hydrazino]-2-hydroxy-2-methyl-propionic acid] | 12.6 to 100 nM
CC(C)(C[C@@H](Cc1ccc(-c2ccccc2)cc1)NC(=O)c1cc(C(=O)O)n[nH]1)C(=O)O [Example 9-6, 5-((R)-1-Biphenyl-4-ylmethyl-3-carboxy-3-methyl-butylcarbamoyl)-1H-pyrazole-3-carboxylic acid] | ≤ 1 nM
C[C@@](O)(CN(Cc1ccc(-c2cc(F)ccc2F)cc1)NC(=O)c1cc(O)no1)C(=O)O [Example 7-18, (R)-3-[N-(2′,5′-Difluorobiphenyl-4-ylmethyl)-N′-(3-hydroxy-isoxazole-5-carbonyl)-hydrazino]-2-hydroxy-2-methyl-propionic acid] | 1.26 to 10 nM
CC(C)(C[C@@H](Cc1ccc(-c2ccccc2)cc1)NC(=O)c1cnc(O)nc1)C(=O)O [Example 9-5, (R)-5-Biphenyl-4-yl-4-[(2-hydroxy-pyrimidine-5-carbonyl)-amino]-2,2-dimethyl-pentanoic acid] | 1.26 to 10 nM
C[C@](O)(C[C@@H](Cc1ccc(-c2ccccc2)cc1)NC(=O)c1cnn[nH]1)C(=O)O [Example 2-1, (2S,4R)-5-Biphenyl-4-yl-2-hydroxy-2-methyl-4-[(3H-[1,2,3]triazole-4-carbonyl)-amino]-pentanoic acid] | 12.6 to 100 nM
CC(C)(C[C@@H](Cc1ccc(-c2ccccc2)cc1)NC(=O)c1cc(C(=O)N2CCC(O)C2)n[nH]1)C(=O)O (stereo partly drawn) [Example 9-9, (R)-5-Biphenyl-4-yl-4-{[5-(3-hydroxy-pyrrolidine-1-carbonyl)-2H-pyrazole-3-carbonyl]-amino}-2,2-dimethyl-pentanoic acid] | 12.6 to 100 nM
C[C@@](O)(CN(Cc1ccc(-c2ccccc2O)cc1)NC(=O)c1cc(O)no1)C(=O)O [Example 7-16, (R)-2-Hydroxy-3-[N-(2′-hydroxy-biphenyl-4-ylmethyl)-N′-(3-hydroxy-isoxazole-5-carbonyl)-hydrazino]-2-methyl-propionic acid] | 1.26 to 10 nM
C[C@@](O)(CN(Cc1ccc(-c2cc(Cl)cc(Cl)c2)cc1)NC(=O)c1cc(O)no1)C(=O)O [Example 7-13, (R)-3-[N-(3′,5′-Dichlorobiphenyl-4-ylmethyl)-N′-(3-hydroxy-isoxazole-5-carbonyl)-hydrazino]-2-hydroxy-2-methyl-propionic acid] | 12.6 to 100 nM
CC(C)(C[C@@H](Cc1ccc(-c2ccccc2)cc1)NC(=O)c1cc(O)no1)C(=O)O [Example 8A, (R)-5-Biphenyl-4-yl-4-[(3-hydroxy-isoxazole-5-carbonyl)-amino]-2,2-dimethyl-pentanoic acid] | ≤ 1 nM
CC(C)(C[C@@H](Cc1ccc(-c2ccccc2)cc1)NC(=O)c1ncn[nH]1)C(=O)O [Example 9-4, (R)-5-Biphenyl-4-yl-2,2-dimethyl-4-[(2H-[1,2,4]triazole-3-carbonyl)-amino]-pentanoic acid] | 12.6 to 100 nM
COc1cc(C(=O)NN(Cc2ccc(-c3ccccc3)cc2)CC(C)(O)C(=O)O)on1 (stereo not shown) [Example 4-3, 3-[N-Biphenyl-4-ylmethyl-N′-(3-methoxy-isoxazole-5-carbonyl)-hydrazino]-2-hydroxy-2-methyl-propionic acid] | 126 to 1000 nM
C[C@@](O)(CN(Cc1ccc(-c2ccccc2F)cc1)NC(=O)c1cc(O)no1)C(=O)O [Example 7-17, (R)-3-[N-(2′-Fluorobiphenyl-4-ylmethyl)-N′-(3-hydroxy-isoxazole-5-carbonyl)-hydrazino]-2-hydroxy-2-methyl-propionic acid] | 1.26 to 10 nM
CC(=O)c1cc(C(=O)N[C@H](Cc2ccc(-c3ccccc3)cc2)CC(C)(C)C(=O)O)[nH]n1 [Example 9-18, (R)-4-[(5-Acetyl-2H-pyrazole-3-carbonyl)-amino]-5-biphenyl-4-yl-2,2-dimethyl-pentanoic acid] | 12.6 to 100 nM
C[C@@](O)(CN(Cc1ccc(-c2cccc(Cl)c2)cc1)NC(=O)c1cc(O)no1)C(=O)O [Example 7-11, (R)-3-[N-(3′-Chlorobiphenyl-4-ylmethyl)-N′-(3-hydroxy-isoxazole-5-carbonyl)-hydrazino]-2-hydroxy-2-methyl-propionic acid] | ≤ 1 nM
CC(O)(CN(Cc1ccc(-c2ccccc2)cc1)NC(=O)c1cc(O)n[nH]1)C(=O)O (stereo not shown) [Example 4-5, 3-[N-Biphenyl-4-ylmethyl-N′-(5-hydroxy-2H-pyrazole-3-carbonyl)-hydrazino]-2-hydroxy-2-methyl-propionic acid] | 12.6 to 100 nM
C[C@@](O)(CN(Cc1ccc(-c2cccc(Cl)c2)cc1)NC(=O)c1cc(C(=O)O)ncn1)C(=O)O [Example 7-26, 6-[N′—((R)-2-Carboxy-2-hydroxy-propyl)-N′-(3′-chlorobiphenyl-4-ylmethyl)-hydrazinocarbonyl]-pyrimidine-4-carboxylic acid] | ≤ 1 nM
C[C@@](O)(C[C@@H](Cc1ccc(-c2ccccc2)cc1)NC(=O)c1cc(C(=O)O)n[nH]1)C(=O)O [Example 2-13, 5-((1R,3R)-1-Biphenyl-4-ylmethyl-3-carboxy-3-hydroxy-butylcarbamoyl)-1H-pyrazole-3-carboxylic acid] | ≤ 1 nM
CC(O)(CN(Cc1ccc(-c2ccccc2)cc1)NC(=O)c1cnc(O)nc1)C(=O)O (stereo not shown) [Example 4-4, 3-[N-Biphenyl-4-ylmethyl-N′-(2-hydroxy-pyrimidine-5-carbonyl)-hydrazino]-2-hydroxy-2-methyl-propionic acid] | 12.6 to 100 nM
CN(C)C(=O)c1cc(C(=O)N[C@H](Cc2ccc(-c3ccccc3)cc2)CC(C)(C)C(=O)O)[nH]n1 [Example 9-13, (R)-5-Biphenyl-4-yl-4-[(5-dimethylcarbamoyl-2H-pyrazole-3-carbonyl)-amino]-2,2-dimethyl-pentanoic acid] | 12.6 to 100 nM
CC(O)(CN(Cc1ccc(-c2ccccc2)cc1)NC(=O)c1cc(O)no1)C(=O)O (stereo not shown) [Example 3B, 3-[N-Biphenyl-4-ylmethyl-N′-(3-hydroxy-isoxazole-5-carbonyl)-hydrazino]-2-hydroxy-2-methyl-propionic acid] | 1.26 to 10 nM
CC(C)(C[C@@H](Cc1ccc(-c2ccccc2)cc1)NC(=O)c1cc(C(=O)N2CCC[C@H]2C(=O)O)n[nH]1)C(=O)O [Example 9-11, (S)-1-[5-((R)-1-Biphenyl-4-ylmethyl-3-carboxy-3-methyl-butylcarbamoyl)-1H-pyrazole-3-carbonyl]-pyrrolidine-2-carboxylic acid] | 1.26 to 10 nM
CC(O)(CN(Cc1ccc(-c2ccccc2)cc1)NC(=O)c1cc(C(=O)N2CCCC2)n[nH]1)C(=O)O (stereo not shown) [Example 4-8, 3-{N-Biphenyl-4-ylmethyl-N′-[5-(pyrrolidine-1-carbonyl)-2H-pyrazole-3-carbonyl]-hydrazino}-2-hydroxy-2-methyl-propionic acid] | 12.6 to 100 nM
C[C@@](O)(CN(Cc1ccc(-c2cccc(Cl)c2)cc1)NC(=O)c1cn(O)nn1)C(=O)O [Example 7-2, (R)-3-[N-(3′-Chlorobiphenyl-4-ylmethyl)-N′-(1-hydroxy-1H-[1,2,3]triazole-4-carbonyl)-hydrazino]-2-hydroxy-2-methyl-propionic acid] | 1.26 to 10 nM
CC(O)(CN(Cc1ccc(-c2cccc(F)c2)cc1)NC(=O)c1cc(O)no1)C(=O)O (stereo not shown) [Example 5, 3-[N-(3′-Fluorobiphenyl-4-ylmethyl)-N′-(3-hydroxy-isoxazole-5-carbonyl)-hydrazino]-2-hydroxy-2-methyl-propionic Acid] | 1.26 to 10 nM
C[C@](O)(C[C@@H](Cc1ccc(-c2ccccc2)cc1)NC(=O)c1cnc(O)nc1)C(=O)O [Example 2-10, (2S,4R)-5-Biphenyl-4-yl-2-hydroxy-4-[(2-hydroxy-pyrimidine-5-carbonyl)-amino]-2-methyl-pentanoic acid] | 1.26 to 10 nM
C[C@@](O)(CN(Cc1ccc(-c2ccccc2Cl)cc1)NC(=O)c1cc(O)no1)C(=O)O [Example 7-15, (R)-3-[N-(2′-Chlorobiphenyl-4-ylmethyl)-N′-(3-hydroxy-isoxazole-5-carbonyl)-hydrazino]-2-hydroxy-2-methyl-propionic acid] | 12.6 to 100 nM
